Experimental findings from patent publication US10155764B2, “Therapeutic compounds and uses thereof” (GENENTECH, INC., priority 2014, dated 2018) are described below.

pIC50: −log10 of the molar value. Where only a bound is given, the exact number is not on record here.

This test concerns the target PCAF719-832 bromodomain (Homo sapiens (Human), UniProt Q92831). Kind of test: PCAF AlphaLisa binding assay. Conditions: PCAF bromodomain 225 nM, biotinylated small molecule ligand 6 nM. Background: Alpha assays give light when donor and acceptor beads are brought close together.

PCAF719-832 bromodomain, sequence (Q92831 719-832): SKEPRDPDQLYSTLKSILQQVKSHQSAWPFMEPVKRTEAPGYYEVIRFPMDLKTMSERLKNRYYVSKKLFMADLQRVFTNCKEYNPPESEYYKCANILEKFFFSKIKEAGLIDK
Procedure: PCAF bromodomain binding and inhibition of the compounds disclosed herein was assessed by monitoring the engagement of biotinylated small molecule ligand (known to bind to the PCAF bromodomain) with the target using the AlphaLisa technology (Perkin-Elmer).

`Cn1nc(NCCN2CCCC2)c2ccccc2c1=O` [Example 24, 2-methyl-4-((2-(pyrrolidin-1-yl)ethyl)amino)phthalazin-1(2H)-one] gave a pIC50 of 6.04.

For the compound `CC[C@@H](CNc1nn(C)c(=O)c2ccccc12)N(C)C` (single isomer, unassigned) [Example 39A], the pIC50 was 6.26.

The compound `CC(CN(C)C)Nc1nn(C)c(=O)c2c1CCN(c1ccc(Cl)cc1)C2` (racemic) [Example 89, 6-(4-chlorophenyl)-1-((1-(dimethylamino)propan-2-yl)amino)-3-methyl-5,6,7,8-tetrahydropyrido[3,4-d]pyridazin-4(3H)-one] had a pIC50 of 5.92. Compared with the last compound, the pIC50 is 0.34 log units lower.

For `Cc1cccc2c(N[C@@H](C)[C@H](c3ccccc3)N(C)C)nn(C)c(=O)c12` (single isomer, unassigned) [Example 69A], the pIC50 is below 5.30.

With `C[C@@H](Nc1nn(C)c(=O)c2ccccc12)[C@@H](c1ccccc1)N(C)C` (single isomer, unassigned) [Example 73B], the pIC50 is 6.17.

As to `COc1ccc(C(CNc2nn(C)c(=O)c3ccccc23)N(C)C)cc1` (racemic) [Example 21, 4-((2-(dimethylamino)-2-(4-methoxyphenyl)ethyl)amino)-2-methylphthalazin-1(2H)-one], the pIC50 is 7.19. Compared with the last compound, the pIC50 is 1.02 log units higher.

On to `CN(C)CCOc1nn(C)c(=O)c2ccccc12` [Example 48, 4-(2-(dimethylamino)ethoxy)-2-methylphthalazin-1(2H)-one], for which the pIC50 is 6.35. Compared with the last compound, the pIC50 is 0.84 log units lower.

Compound `CC(C)NCCNc1nn(C)c(=O)c2ccccc12` [Example 40, 4-((2-(isopropylamino)ethyl)amino)-2-methylphthalazin-1(2H)-one] gave a pIC50 of 5.03. This pIC50 is 1.32 log units lower than that of the compound before.

In turn, `Cn1nc(N[C@H]2CCCC[C@H]2N)c2ncccc2c1=O` (single isomer, unassigned) [Example 14B] gave a pIC50 of 5.82.

Compound `Cc1cccc2c(N[C@H](C)[C@@H](c3ccccc3)N(C)C)nn(C)c(=O)c12` (single isomer, unassigned) [Example 69B] had a pIC50 of 6.77. This pIC50 is 0.95 log units higher than that of the compound before.

For the compound `C[C@H](Nc1nn(C)c(=O)c2ccccc12)[C@H](c1ccc(Oc2ccccn2)cc1)N(C)C` (single isomer, unassigned) [Example 80], the pIC50 is 7.34.

`CC(CN(C)C)Nc1nn(C)c(=O)c2cnccc12` (racemic) [Example 13, 1-((1-(dimethylamino)propan-2-yl)amino)-3-methylpyrido[3,4-d]pyridazin-4(3H)-one] showed a pIC50 of 6.82. This pIC50 is 0.52 log units lower than that of the compound before.

Regarding `COc1ccc2c(NCCN(C)C)nn(C)c(=O)c2c1` [Example 4, 4-((2-(dimethylamino)ethyl)amino)-7-methoxy-2-methylphthalazin-1(2H)-one], the pIC50 was 6.33.

`COc1ccc([C@@H]([C@H](C)Nc2nn(C)c(=O)c3ccccc23)N(C)C)cn1` (single isomer, unassigned) [Example 62] gave a pIC50 of 7.20.

Compound `CN(CCNc1nn(C)c(=O)c2ccccc12)C1COC1` [Example 51, 2-methyl-4-((2-(methyl(oxetan-3-yl)amino)ethyl)amino)phthalazin-1(2H)-one] gave a pIC50 of 6.10.

`Cc1cccc2c(=O)n(C)nc(N[C@H](C)[C@@H](c3ccccc3)N(C)C)c12` (single isomer, unassigned) [Example 70B] had a pIC50 of 5.74.

For the compound `CNC(=O)c1ccc([C@@H]([C@H](C)Nc2nn(C)c(=O)c3cccnc23)N(C)C)cc1` (single isomer, unassigned) [Example 85], the pIC50 was 7.30.

`COc1ccc([C@@H]([C@H](C)Nc2nn(C)c(=O)c3ccccc23)N(C)C)cc1` (single isomer, unassigned) [Example 79] gave a pIC50 of 7.14.

In turn, `CN(C)[C@H]1CCCC[C@H]1Nc1nn(C)c(=O)c2cccnc12` (single isomer, unassigned) [Example 15A] gave a pIC50 of 7.11.

In the case of `CN(C)C(CNc1nn(C)c(=O)c2cccnc12)c1ccccc1` (stereo not shown) [Example 1, 8-((2-(dimethylamino)-2-phenylethyl)amino)-6-methylpyrido[2,3-d]pyridazin-5(6H)-one], the pIC50 was 7.07.

For `C[C@@H](Nc1nn(C)c(=O)c2cccnc12)[C@@H](c1ccc(S(=O)(=O)c2ccccc2)cc1)N(C)C` (single isomer, unassigned) [Example 74B], the pIC50 was 5.64. This pIC50 lies 1.43 log units lower than the previous one.

`CN(C)CCNc1nn(C)c(=O)c2cccc(F)c12` [Example 5, 4-((2-(dimethylamino)ethyl)amino)-5-fluoro-2-methylphthalazin-1(2H)-one]: the pIC50 is 6.89.

`CC(C)OC(=O)c1ccc([C@@H]([C@H](C)Nc2nn(C)c(=O)c3cccnc23)N(C)C)cc1` [Example 86, Isopropyl 4-((1S,2S)-1-(dimethylamino)-2-((6-methyl-5-oxo-5,6-dihydropyrido[2,3-d]pyridazin-8-yl)amino)propyl)benzoate] gave a pIC50 of 7.52.

For `CN(C)C(CNc1nn(C)c(=O)c2ccccc12)C1CCCCC1` (racemic) [Example 38, 4-((2-cyclohexyl-2-(dimethylamino)ethyl)amino)-2-methylphthalazin-1(2H)-one], the pIC50 was 6.15.

`C[C@H](Nc1nn(C)c(=O)c2cccnc12)[C@H](c1ccc(C(=O)O)cc1)N(C)C` [Example 81, 4-((1S,2S)-1-(dimethylamino)-2-((6-methyl-5-oxo-5,6-dihydropyrido[2,3-d]pyridazin-8-yl)amino)propyl)benzoic acid] gave a pIC50 of 7.01. Compared with the last compound, the pIC50 is 0.86 log units higher.

Consider `CN(C)CCNc1nn(C)c(=O)c2c(F)cccc12` [Example 6, 4-((2-(dimethylamino)ethyl)amino)-8-fluoro-2-methylphthalazin-1(2H)-one], for which the pIC50 was 7.06.

With `Cn1nc(N[C@@H]2CCCC[C@@H]2N)c2ncccc2c1=O` (single isomer, unassigned) [Example 14A], the pIC50 is below 5.30.

`C[C@H](CN(C)C)Nc1nn(C)c(=O)c2cccnc12` (single isomer, unassigned) [Example 8B]: the pIC50 was below 5.30.

With `CN1CCC(Nc2nn(C)c(=O)c3ccccc23)C1` (racemic) [Example 44, 2-methyl-4-((1-methylpyrrolidin-3-yl)amino)phthalazin-1(2H)-one], the pIC50 is 6.59.

Compound `CC(C)Oc1ccc([C@@H]([C@H](C)Nc2nn(C)c(=O)c3ccccc23)N(C)C)cc1` (single isomer, unassigned) [Example 59] gave a pIC50 of 7.48. This pIC50 lies 0.89 log units higher than the previous one.

In the case of `CN1CCCC1CNc1nn(C)c(=O)c2ccccc12` (racemic) [Example 30, 2-methyl-4-(((1-methylpyrrolidin-2-yl)methyl)amino)phthalazin-1(2H)-one], the pIC50 is 5.77.

Compound `C[C@@H](CNc1nn(C)c(=O)c2cccnc12)N(C)C` (single isomer, unassigned) [Example 7A] gave a pIC50 of 6.07.

`COC(=O)c1ccc([C@@H]([C@H](C)Nc2nn(C)c(=O)c3cccnc23)N(C)C)cc1` [Example 68, Methyl 4-((1S,2S)-1-(dimethylamino)-2-((6-methyl-5-oxo-5,6-dihydropyrido[2,3-d]pyridazin-8-yl)amino)propyl)benzoate] had a pIC50 of 6.80. This pIC50 lies 0.73 log units higher than the previous one.

`C[C@H](Nc1nn(C)c(=O)c2ccccc12)[C@H](c1ccc(OCc2ccccc2)cc1)N(C)C` (stereo in doubt) [Example 77, 4-((1-(4-(benzyloxy)phenyl)-1-(dimethylamino)propan-2-yl)amino)-2-methylphthalazin-1(2H)-one]: the pIC50 is 7.44.

Broadly, the pIC50 is the negative decadic logarithm of the IC50, by convention in mol/L.
